Source: patent EP4389156A1, “RA[…] LIGAND COMPOUNDS AND PRECURSORS THEREOF” (Technische Universität München, priority 2022, dated 2024)
Values joined by “and” are separate entries in the source; they are usually repeats but may differ in a detail not shown here. Identical values can stand only once.

Experiments:
[1] = biological target: T1, human serum albumin (HSA) (Homo sapiens, UniProt P02768); assay: HSA binding by high performance affinity chromatography (HPAC); assay type: in vitro ADME; conditions: uncomplexed compounds, n = 1
T1 construct: purchased Daicel, Tokyo, Japan H13H-2433
T1 sequence (P02768 25-609): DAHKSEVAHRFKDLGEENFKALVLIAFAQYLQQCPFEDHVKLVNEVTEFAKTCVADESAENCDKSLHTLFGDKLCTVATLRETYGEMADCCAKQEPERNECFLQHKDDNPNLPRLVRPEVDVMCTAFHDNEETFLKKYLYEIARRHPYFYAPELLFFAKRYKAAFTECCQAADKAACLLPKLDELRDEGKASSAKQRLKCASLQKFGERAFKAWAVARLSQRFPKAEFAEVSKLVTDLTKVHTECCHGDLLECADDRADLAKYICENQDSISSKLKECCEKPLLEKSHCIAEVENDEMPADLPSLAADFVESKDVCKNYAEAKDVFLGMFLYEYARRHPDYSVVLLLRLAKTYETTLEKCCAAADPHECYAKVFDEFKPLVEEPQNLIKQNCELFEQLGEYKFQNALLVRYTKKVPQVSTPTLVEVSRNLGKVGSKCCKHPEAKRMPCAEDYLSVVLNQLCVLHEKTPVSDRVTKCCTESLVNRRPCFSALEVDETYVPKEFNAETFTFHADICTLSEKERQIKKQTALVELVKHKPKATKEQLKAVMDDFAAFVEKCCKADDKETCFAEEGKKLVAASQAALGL
Description: HSA binding of the uncomplexed PSMA ligands was determined according to a previously published procedure via HPLC (Valko, K.; Nunhuck, S.; Bevan, C.; Abraham, M. H.; Reynolds, D. P., Fast gradient HPLC method to determine compounds binding to human serum albumin. Relationships with octanol/water and immobilized artificial membrane lipophilicity. J Pharm Sci. 2003, 92, 2236-2248). A Chiralpak HSA column (50 × 3 mm, 5 µm, H13H-2433, Daicel, Tokyo, Japan) was used at a constant flow rate of 0.5 mL/min at rt. Mobile phase A was a freshly prepared 50 mM aqueous solution of NH4OAc (pH 6.9) and mobile phase B was isopropanol (HPLC grade, VWR). The applied gradient for all experiments was 100% A (0 to 3 min), followed by 80% A (3 to 40 min). Prior to the experiment, the column was calibrated using nine reference substances with a HSA binding, known from literature, in the range of 13 to 99% (Valko, K.; Nunhuck, S.; Bevan, C.; Abraham, M. H.; Reynolds, D. P., J Pharm Sci. 2003, 92, 2236-2248; Yamazaki, K.; Kanaoka, M., Computational prediction of the plasma protein-binding percent of diverse pharmaceutical compounds. J Pharm Sci. 2004, 93, 1480-1494). All substances, including the examined PSMA ligands, were dissolved in a 1:1 mixture (v/v) of isopropanol and a 50 mM aqueous solution of NH4OAc (pH 6.9) with a final concentration of 0.5 mg/mL. Non-linear regression was established with the OriginPro 2016G software (Northampton, United States).

[2] = system: LNCaP tumor-bearing CB17-SCID mice; assay: Biodistribution study in LNCaP tumor-bearing mice; assay type: in vivo
Description: All animal experiments were conducted in accordance with general animal welfare regulations in Germany (German animal protection act, in the edition of the announcement, dated May 18th, 2006, as amended by Article 280 of June 19th 2020, approval no. ROB-55.2-1-2532.Vet_02-18-109 by the General Administration of Upper Bavaria) and the institutional guidelines for the care and use of animals. Male CB17-SCID mice were purchased from Charles River (Sulzfeld, Germany) and arrived at the in-house animal facility to acclimate at least 1 week before the start of the experiment. Tumor xenografts were established by subcutaneous inoculation of LNCaP cells (approx. 2 × 10^7 cells in 200 µL of a 1:1 mixture of Cultrex BME (R&D Systems, Minneapolis, United States) and DMEM/Ham's F-12) onto the right shoulder of 6-8 weeks old male CB17-SCID mice. The animals were used for experiments when tumors had grown to a size of 5-10 mm in diameter. Criteria for the exclusion of animals from the experiment were weight loss higher than 20%, tumor size above 1.5 cm^3, ulceration of the tumor, respiratory distress or change of behavior. […] Neither randomisation nor blinding was applied in the allocation of the experiments. Quarterly health monitoring was performed according to the FELASA recommendations.
Biodistribution Studies. The ^99mTc-labeled radioligands (2.7 ± 0.7 MBq, 82 ± 20 pmol) were injected into a lateral tail vein of LNCaP-tumor bearing mice (n = 4-5) under isoflurane anesthesia. Animals were sacrificed at 6 h post injection (p.i.) by carbon dioxide inhalation and blood withdrawal via cardiac puncture. Blood and tissues of interest were collected, weighed and the activity measured in a γ-counter. Radioligand uptake is given in percent of the injected dose per gram of tissue (% ID/g) and results are presented as mean ± SD.
In line with the above, the biodistribution study of [^99mTc]Tc-N4-PSMA-21 was carried out with n = 5 animals ("data set I"). […] Kidney uptake of mouse #3 (36.17 %ID/g) exceeded the value obtained from the other four animals (4.58 ± 1.44 %ID/g, mean ± SD) 7.9-fold or by more than 20 standard deviations. In addition, tumor uptake of mouse #3 (21.92 %ID/g) exceeded the value obtained from the other four animals (11.02 ± 2.22 %ID/g, mean ± SD) 2.0-fold or by more than 4 standard deviations Due to the uncertainty whether these huge deviations arise from an experimental error or might be related to strongly deviating metabolic processes e.g. abnormal kidney function in mouse #3, the study primarily presents and discusses the data set based on the other four animals (n = 4, "data set II"). A thorough evaluation and comparison was, however, also carried out including mouse #3.

PSMA = biological target: T2, PSMA (Homo sapiens, UniProt Q04609); assay: Competitive binding study, inverse IC50 (99mTc-radioligand versus increasing IBA-KuE); conditions: inverse IC50: IBA-KuE competes against 99mTc-radioligand (0.2 nM/well); higher values = higher affinity; 1 h, 4°C, n = 3, mean ± SD; read-out: IC50, inv.
T2 construct: endogenous in cells; printed for the internalization assay of the same paragraph
T2 sequence (Q04609 whole entry): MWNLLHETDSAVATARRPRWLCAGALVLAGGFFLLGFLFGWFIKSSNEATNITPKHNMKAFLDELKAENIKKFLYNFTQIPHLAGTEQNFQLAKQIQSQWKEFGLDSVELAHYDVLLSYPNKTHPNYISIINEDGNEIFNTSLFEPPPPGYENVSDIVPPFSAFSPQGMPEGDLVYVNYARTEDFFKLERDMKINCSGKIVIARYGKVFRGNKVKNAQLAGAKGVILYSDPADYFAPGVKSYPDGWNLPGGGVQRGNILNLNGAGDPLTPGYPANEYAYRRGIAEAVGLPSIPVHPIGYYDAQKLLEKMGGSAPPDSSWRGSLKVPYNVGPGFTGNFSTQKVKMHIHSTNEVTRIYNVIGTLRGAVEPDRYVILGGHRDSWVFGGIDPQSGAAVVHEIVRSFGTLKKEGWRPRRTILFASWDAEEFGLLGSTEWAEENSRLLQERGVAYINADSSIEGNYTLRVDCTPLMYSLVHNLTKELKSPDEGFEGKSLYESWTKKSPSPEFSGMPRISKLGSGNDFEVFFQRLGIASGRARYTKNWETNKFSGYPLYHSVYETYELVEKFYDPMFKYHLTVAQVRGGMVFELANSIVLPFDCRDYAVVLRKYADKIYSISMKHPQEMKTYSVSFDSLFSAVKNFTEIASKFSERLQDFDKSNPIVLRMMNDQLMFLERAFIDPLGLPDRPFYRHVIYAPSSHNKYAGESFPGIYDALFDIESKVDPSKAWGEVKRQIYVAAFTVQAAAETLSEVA
Description: Competitive binding studies were carried out in analogy to a previously reported procedure. As a modification the non-radiolabeled standard competitor (((S)-1-carboxy-5-(4-(iodo)benzamido)pentyl)carbamoyl)-L-glutamic acid (IBA-KuE) was applied in increasing concentrations (10^-5 - 10^-11 M/well, n = 3 each) whereas the novel PSMA-binding compounds of interest were applied as ^99mTc-labeled radioligands (0.2 nM/well). In this inversed experimental approach, higher values correspond to higher affinities and are referred to as inverse IC50. Poly-L-lysine coated 24-well plates were used (n = 3). Data are given as mean ± SD. To determine the cellular uptake of the ^99mTc-labeled PSMA ligands into LNCaP cells by means of PSMA-mediated internalization at 1 h, a previously reported protocol was applied with assay concentrations of 1.0 nM and 0.2 nM for ^99mTc-labeled PSMA ligands and the reference compound [^125I]IBA-KuE, respectively. Data are corrected for non-specific binding and normalized to the specific internalization of the reference. Results are given as mean ± SD.

[3] = 6 h p.i., male LNCaP tumor-bearing CB17-SCID mice, mean, n = 4-5
[4] = 6 h p.i., mean of ratios of individual animals, n = 4-5
[5] = 6 h p.i., relative to [^99mTc]Tc-PSMA-I&S

CC(C)(C)[Si](O)(c1ccc(C(=O)NC[C@@H](NC(=O)[C@@H](CCC(=O)O)NC(=O)C(CNCCN)CNCCN)C(=O)N[C@H](CCCCNC(=O)CCC(=O)NCCC[C@@H](NC(=O)CC[C@H](NC(=O)N[C@@H](CCC(=O)O)C(=O)O)C(=O)O)C(=O)O)C(=O)O)cc1)C(C)(C)C.[O]=[99Tc+]=[O] [[^99mTc]Tc-N4-PSMA-12]
HSA-binding (HPAC) (%) [1]: 47.7% | uptake in % iD/g adrenals [2, 3]: 0.6570 % ID/g | uptake in % iD/g blood [2, 3]: 0.0200 ± 0.0044 % ID/g and 0.0200 % ID/g | uptake in % iD/g bone [2, 3]: 0.0365 % ID/g | uptake in % iD/g heart [2, 3]: 0.0274 % ID/g | uptake in % iD/g intestine [2, 3]: 0.5391 % ID/g | uptake in % iD/g kidney [2, 3]: 12.3 ± 8.0 % ID/g and 12.2924 % ID/g | uptake in % iD/g liver [2, 3]: 0.1796 % ID/g | uptake in % iD/g lung [2, 3]: 0.0613 % ID/g | uptake in % iD/g muscle [2, 3]: 0.0110 % ID/g | uptake in % iD/g pancreas [2, 3]: 0.0206 % ID/g | uptake in % iD/g parotid gland [2, 3]: 0.0804 % ID/g | uptake in % iD/g spleen [2, 3]: 0.8928 % ID/g | uptake in % iD/g stomach [2, 3]: 0.0988 % ID/g | uptake in % iD/g submandibular gland [2, 3]: 0.1450 % ID/g | uptake in % iD/g tumor [2, 3]: 13.0231 % ID/g | tumor-to-background ratio adrenals [2, 4]: 22.15 | tumor-to-background ratio blood [2, 4]: 658 ± 147 and 657.74 | tumor-to-background ratio bone [2, 4]: 384.40 | tumor-to-background ratio heart [2, 4]: 484.90 | tumor-to-background ratio intestine [2, 4]: 57.76 | tumor-to-background ratio kidney [2, 4]: 1.64 ± 1.29 and 1.64 | tumor-to-background ratio liver [2, 4]: 79.92 | tumor-to-background ratio lung [2, 4]: 216.68 | tumor-to-background ratio muscle [2, 4]: 1265.34 | tumor-to-background ratio pancreas [2, 4]: 637.21 | tumor-to-background ratio parotid gland [2, 4]: 177.38 | tumor-to-background ratio spleen [2, 4]: 17.89 | tumor-to-background ratio stomach [2, 4]: 158.87 | tumor-to-background ratio submandibular gland [2, 4]: 90.45 | fold T/blood-ratio in comparison with [^99mTc]Tc-PSMA-I&S [2, 5]: 3 fold | fold T/kidney-ratio in comparison with [^99mTc]Tc-PSMA-I&S [2, 5]: 20 fold | fold decrease of blood activity at 6 h p.i. ([2]; relative to [^99mTc]Tc-PSMA-I&S): 3.6 fold | inverse IC50 (PSMA): 11 ± 2.8 nM
